Data set [1] in a line: Tmax in BALBnu/CrlCrlj mouse at 0.1 to 1 mg/kg, po measured for 1 to 24 hrs. To be noted: in vivo, dose lower 0.1 mg/kg, time lower 1 hrs, dose upper 1 mg/kg, time upper 24 hrs. The data set is classed as ADME, organism-based.
Data set [2] can be described thus: Tmax in BALBnu/CrlCrlj mouse xenografted with human KM12 cell tumor at 0.06 to 0.6 mg/kg, po measured after 48 hrs. Conditions: in vivo, dose 0.06-0.6 mg/kg. The data set is classed as ADME, organism-based. For orientation: In xenograft studies the graft and the host belong to different species.

`CS(=O)(=O)c1ccc(C(F)(F)F)cc1NC(=O)Nc1cnc(Oc2ccc(-c3cc(Cl)cnc3N)cc2)nc1` [ONO-7579]: the Tmax (commonly the time from dosing to the highest level) amounted to 2 h in data set [1] and 7 h in data set [2].

(Values after ChEMBL document CHEMBL5137061, “Design and Measurement of Drug Tissue Concentration Asymmetry and Tissue Exposure-Effect (Tissue PK-PD) Evaluation” (J Med Chem, 2022).)
